# Measured values published in patent publication US11505558B1, “Antiviral heterocyclic compounds” (Enanta Pharmaceuticals, Inc., priority 2019, dated 2022).
# Test system: genotype A, "Long" strain RSV
# Assay: RSV-A assay (CPE, ATPlite readout in Hep-2 cells)
# Assay type: cell-based
# Details: human respiratory syncytial virus, HEp-2, Hep-2 cells, genotype A "Long" strain RSV, MOI 0.1; read-out: Human RSV-A (“Long” strain) EC50
# Method in brief: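 Protection from RSV-induced cytopathic effect, measured as ATPlite luminescence after 5 days, gave EC50 values. Assay used genotype A Long strain at MOI 0.1 on Hep-2 cells seeded at 8,000/well in DMEM growth media with 10% FBS; compounds tested as 2-fold dilutions in duplicate.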
row,Structure (SMILES),EC50
1,C[C@]1(C(N)=O)COc2c1cc([C@@](O)(CNC(=O)c1cc3c(F)cc(Cl)cc3[nH]1)C(F)(F)F)nc2-c1ccc(F)cc1 [Example 597],< 200 nM
2,CC(C)(O)CNC(=O)Nc1cc(C(=O)NC[C@](O)(c2cc3c(c(-c4ccc(F)cc4)n2)OC[C@]3(C)C(N)=O)C(F)(F)F)cc2cccnc12 [Example 412],< 200 nM
3,C[C@]1(C(N)=O)COc2c1cc([C@@](O)(CNC(=O)c1ccc(F)c(OC3CC3)c1)C(F)(F)F)nc2-c1ccc(F)cc1 [Example 294],< 200 nM
4,COc1cc(C(=O)NC[C@](O)(c2cc3c(c(-c4ccc(F)cc4)n2)OC[C@]3(C)CNCC2CC2)C(F)(F)F)ccc1OC1CC1 [Example 18],< 200 nM
5,Cc1cnc2c(NC(=O)NNC3CC3)cc(C(=O)NC[C@](O)(c3cc4c(c(-c5ccc(F)cc5)n3)OC[C@]4(C)C(N)=O)C(F)(F)F)cc2c1 [Example 631],< 200 nM
6,C[C@]1(C(N)=O)COc2c1cc([C@@](O)(CNC(=O)c1ccc(-c3cncc(C(F)(F)F)c3)c(OC3CC3)c1)C(F)(F)F)nc2-c1ccc(F)cc1 [Example 143],> 200 nM
7,Cc1ccc2cc(C(=O)NC[C@](O)(c3cc4c(c(-c5ccc(F)c(Cl)c5)n3)OC[C@]4(C)C(N)=O)C(F)(F)F)cc(N3CCCC3=O)c2n1 [Example 653],> 200 nM
8,Cc1cc(-c2nc([C@@](O)(CNC(=O)c3ccc4nc(N)sc4c3)C(F)(F)F)cc3c2OC[C@]3(C)C(=O)NCC(C)(C)O)ccc1F [Example 505],< 200 nM
9,C[C@]1(C(N)=O)COc2c1cc([C@@](O)(CNC(=O)c1cc(-c3ncccn3)c3ncccc3c1)C(F)(F)F)nc2-c1ccc(F)cc1 [Example 354],> 200 nM
10,C[C@]1(C(N)=O)COc2c1cc([C@@](O)(CNC(=O)c1ccc3ncccc3c1Cl)C(F)(F)F)nc2-c1ccc(F)cc1 [Example 240],> 200 nM
11,COc1cc(C(=O)NC[C@](O)(c2cc3c(c(-c4ccc(F)cc4)n2)OC[C@]3(C)C(N)=O)C(F)(F)F)cc2cn(C)nc12 [Example 427],< 200 nM
12,C[C@]1(C(N)=O)COc2c1cc([C@@](O)(CNC(=O)c1ccc3ccncc3c1)C(F)(F)F)nc2-c1ccc(F)cc1 [Example 268],< 200 nM
13,C[C@]1(C(N)=O)COc2c1cc([C@@](O)(CNC(=O)c1cc(O)c3nc(N)sc3c1)C(F)(F)F)nc2-c1ccc(F)cc1 [Example 442],< 200 nM
14,C[C@]1(C(N)=O)COc2c1cc([C@@](O)(CNC(=O)c1cc(NC(=O)NC3COC3)c3ncccc3c1)C(F)(F)F)nc2-c1ccc(F)cc1 [Example 414],< 200 nM
15,Cc1cnc2c(NC(=O)NC3COC3)cc(C(=O)NC[C@](O)(c3cc4c(c(-c5ccc(F)cc5)n3)OC[C@]4(C)C(N)=O)C(F)(F)F)cc2c1 [Example 559],< 200 nM
16,CC(=O)NCCOc1cc(C(=O)NC[C@](O)(c2cc3c(c(-c4ccc(F)cc4)n2)OC[C@]3(C)C(N)=O)C(F)(F)F)cc2cccnc12 [Example 357],> 200 nM
17,COc1cc(C(=O)NC[C@](O)(c2cc3c(c(C#Cc4cccc(F)c4)n2)OC[C@]3(C)C(N)=O)C(F)(F)F)ccc1OC1CC1 [Example 516],> 200 nM
18,C[C@]1(C(N)=O)COc2c1cc([C@@](O)(CNC(=O)c1cc(-c3ccncc3)c3ncccc3c1)C(F)(F)F)nc2-c1ccc(F)cc1 [Example 351],< 200 nM
19,COc1cc(C(=O)NC[C@](O)(c2cc3c(c(-c4ccc(C)cc4)n2)OC[C@]3(C)C(N)=O)C(F)(F)F)cc2sc(N)nc12 [Example 435],< 200 nM

row,Structure (SMILES),EC50
1,CCc1ccc2cc(C(=O)NC[C@](O)(c3cc4c(c(-c5ccc(F)cc5)n3)OC[C@]4(C)C(N)=O)C(F)(F)F)cc(O)c2n1 [Example 272],> 200 nM
2,C[C@]1(C(N)=O)COc2c1cc([C@@](O)(CNC(=O)c1ccc(OC3CC3)c(-c3ccncc3)c1)C(F)(F)F)nc2-c1ccc(F)cc1 [Example 119],> 200 nM
3,C[C@]1(C(N)=O)COc2c1cc([C@@](O)(CNC(=O)c1cc(OCC(N)=O)c3ncccc3c1)C(F)(F)F)nc2-c1ccc(F)c(Cl)c1 [Example 382],< 200 nM
4,C[C@]1(C(N)=O)COc2c1cc([C@@](O)(CNC(=O)c1cc3ccccc3cn1)C(F)(F)F)nc2-c1ccc(F)cc1 [Example 236],> 200 nM
5,Cc1cccc(-c2cc(C(=O)NC[C@](O)(c3cc4c(c(-c5ccc(F)cc5)n3)OC[C@]4(C)C(N)=O)C(F)(F)F)ccc2OC2CC2)n1 [Example 109],< 200 nM
6,C[C@]1(C(=O)NCC2(O)CC2)COc2c1cc([C@@](O)(CNC(=O)c1cc(OC3CC3)c3ncccc3c1)C(F)(F)F)nc2-c1ccc(F)cc1 [Example 489],< 200 nM
7,C[C@]1(C(N)=O)COc2c1cc([C@@](O)(CNC(=O)c1cc(O)c3ncccc3c1)C(F)(F)F)nc2-c1ccc(F)cc1 [Example 229],> 200 nM
8,C[C@]1(C(N)=O)COc2c1cc([C@@](O)(CNC(=O)c1cc(NC(=O)N3CCC3)c3ncccc3c1)C(F)(F)F)nc2-c1ccc(F)cc1 [Example 410],< 200 nM
9,C[C@]1(C(=O)NCCCc2ccccc2)COc2c1cc([C@@](O)(CNC(=O)c1cc(OC3CC3)c3ncccc3c1)C(F)(F)F)nc2-c1ccc(F)cc1 [Example 487],> 200 nM
10,CN1Cc2cc(C(=O)NC[C@](O)(c3cc4c(c(-c5ccc(F)c(Cl)c5)n3)OC[C@]4(C)C(N)=O)C(F)(F)F)ccc2C1=O [Example 646],< 200 nM
11,COc1cc(C(=O)NC[C@](O)(c2cc3c(c(-c4ccc(F)cc4)n2)OC[C@]3(C)C(N)=O)C(F)(F)F)ccc1OCCO [Example 11],< 200 nM
12,C[C@]1(C(N)=O)COc2c1cc([C@@](O)(CNC(=O)c1cc(OC3CC3)c3nc(C(F)(F)F)ccc3c1)C(F)(F)F)nc2-c1ccc(F)cc1 [Example 225],> 200 nM
13,CC(C)(O)CNC(=O)[C@@]1(C)COc2c1cc([C@@](O)(CNC(=O)c1ccc3nc(N)oc3c1)C(F)(F)F)nc2-c1ccc(F)cc1 [Example 498],< 200 nM
14,CC1(NC(=O)COc2cc(C(=O)NC[C@](O)(c3cc4c(c(-c5ccc(F)cc5)n3)OC[C@]4(C)C(N)=O)C(F)(F)F)cc3cccnc23)CC1 [Example 370],> 200 nM
15,C[C@]1(C(N)=O)COc2c1cc([C@@](O)(CNC(=O)c1cc(NC(=O)c3ncc[nH]3)c3ncccc3c1)C(F)(F)F)nc2-c1ccc(F)cc1 [Example 403],< 200 nM
16,COc1ccc2cc(C(=O)NC[C@](O)(c3cc4c(c(-c5ccc(F)cc5)n3)OC[C@]4(C)C(N)=O)C(F)(F)F)[nH]c2c1 [Example 304],< 200 nM
17,CNC(=O)CCNC(=O)[C@@]1(C)COc2c1cc([C@@](O)(CNC(=O)c1cc(OC3CC3)c3ncccc3c1)C(F)(F)F)nc2-c1ccc(F)cc1 [Example 474],< 200 nM
18,C[C@]1(C(N)=O)COc2c1cc([C@@](O)(CNC(=O)c1cc(NC(=O)[C@@H]3CCN3)c3ncccc3c1)C(F)(F)F)nc2-c1ccc(F)cc1 [Example 400],> 200 nM
19,C[C@]1(C(N)=O)COc2c1cc([C@@](O)(CNC(=O)c1cc3cncnc3[nH]1)C(F)(F)F)nc2-c1ccc(F)cc1 [Example 292],> 200 nM

row,Structure (SMILES),EC50
1,C[C@]1(C(N)=O)COc2c1cc([C@@](O)(CNC(=O)c1cc3c(F)cccc3[nH]1)C(F)(F)F)nc2-c1ccc(F)cc1 [Example 601],> 200 nM
2,C[C@]1(C(N)=O)COc2c1cc([C@@](O)(CNC(=O)c1cc(OCCF)c3ncccc3c1)C(F)(F)F)nc2-c1ccc(F)cc1 [Example 277],< 200 nM
3,C[C@]1(C(N)=O)COc2c1cc([C@@](O)(CNC(=O)c1ccc(OC3CC3)c(-c3cncnc3)c1)C(F)(F)F)nc2-c1ccc(F)cc1 [Example 78],< 200 nM
4,COc1cc(C(=O)NC[C@](O)(c2cc3c(c(-c4ccc(F)cc4)n2)OC[C@]3(C)C(N)=O)C(F)(F)F)cc2c1NC(=O)CC2 [Example 60],< 200 nM
5,COc1cc(C(=O)NCC(O)(c2cc3c(c(-c4ccc(F)cc4)n2)OC[C@]3(C)CN[C@@H](C)C2CC2)C(F)(F)F)cc2cccnc12 (some centres unmarked) [Example 24],< 200 nM
6,C[C@]1(C(N)=O)COc2c1cc([C@@](O)(CNC(=O)c1cc(C(F)(F)F)c3ncccc3c1)C(F)(F)F)nc2-c1ccc(F)cc1 [Example 64],< 200 nM
7,Cc1ccc(-c2cc(C(=O)NC[C@](O)(c3cc4c(c(-c5ccc(F)cc5)n3)OC[C@]4(C)C(N)=O)C(F)(F)F)ccc2OC2CC2)nc1 [Example 107],> 200 nM
8,C[C@]1(C(N)=O)COc2c1cc([C@@](O)(CNC(=O)c1ccc(-c3nccs3)c(OC3CC3)c1)C(F)(F)F)nc2-c1ccc(F)cc1 [Example 173],> 200 nM
9,C[C@]1(C(N)=O)COc2c1cc([C@@](O)(CNC(=O)c1cc3c(Cl)cccc3[nH]1)C(F)(F)F)nc2-c1ccc(F)cc1 [Example 602],> 200 nM
10,C[C@]1(C(N)=O)COc2c1cc([C@@](O)(CNC(=O)c1cnccn1)C(F)(F)F)nc2-c1ccc(F)cc1 [Example 299],> 200 nM
11,COc1cc(C(=O)NC[C@](O)(c2cc3c(c(-c4ccc(F)cc4)n2)OC[C@]3(C)C(N)=O)C(F)(F)F)cc2c(C)ccnc12 [Example 251],> 200 nM
12,C[C@]1(C(N)=O)COc2c1cc([C@@](O)(CNC(=O)c1ccc(-c3ccnnc3)c(OC3CC3)c1)C(F)(F)F)nc2-c1ccc(F)cc1 [Example 168],< 200 nM
13,Cc1cc2cc(C(=O)NC[C@](O)(c3cc4c(c(-c5ccc(F)cc5)n3)OC[C@]4(C)C(N)=O)C(F)(F)F)cc(NC(=O)NC3COC3)c2nc1C [Example 660],< 200 nM
14,COc1cc(C(=O)NC[C@](O)(c2cc3c(c(-c4ccc(F)cc4)n2)OC[C@]3(C)C(=O)NCC(C)(C)O)C(F)(F)F)cc2sc(N)nc12 [Example 502],< 200 nM
15,COc1cc(C(=O)NC[C@](C)(O)c2cc3c(c(-c4ccc(F)cc4)n2)OC[C@]3(C)C(N)=O)ccc1OC[C@@H](C)O [Example 264],< 200 nM
16,C[C@@H](O)COc1ccc(C(=O)NC[C@](C)(O)c2cc3c(c(-c4ccc(F)cc4)n2)OC[C@]3(C)C(N)=O)cc1OC1CC1 [Example 267],< 200 nM
17,C[C@]1(C(N)=O)COc2c1cc([C@@](O)(CNC(=O)c1ccc3cn[nH]c3c1)C(F)(F)F)nc2-c1ccc(F)cc1 [Example 587],> 200 nM
18,CCCNC(=O)[C@@]1(C)COc2c1cc([C@@](O)(CNC(=O)c1cc(OC3CC3)c3ncccc3c1)C(F)(F)F)nc2-c1ccc(F)cc1 [Example 456],< 200 nM
